Assay results published in article PMC10059083, “Design, Synthesis, and Biological Evaluation of Novel Hydroxamic Acid-Based Organoselenium Hybrids” (Pharmaceuticals, 2023).
Where two headings read alike, the source gives them in different places.

Tests used:
HepG2 cells = assay: MTT antiproliferative assay, HepG2 cells; format: cell-based; settings: for IC50: Homo sapiens, read-out: HepG2 IC50; for HepG2 TI (therapeutic index): ratio of IC50 against WI38 cells to IC50 against HepG2 cells
Source text: (§1) Recently, OSe agents have attracted interest due to their potential chemoprotective and antitumor properties. We have developed several OSe compounds with promising antioxidant, antimicrobial, and antitumor properties. Therefore, we estimated the OSe agents’ antiproliferative activities against different cancer cells, i.e., MCF-7 and HepG2 cells and healthy lung fibroblast WI-38 cells, using the MTT assay. The drug doxorubicin was employed as the standard. The corresponding therapeutic indices (TI) are described as the proportion of the WI38 cells IC50 to the IC50 of the cancer cell (e.g., MCF-7 and HepG2) (Table 1).
(§2) The products’ anticancer activity was examined using the MTT assay against breast (MCF-7) carcinoma cells, liver (HepG2), and normal WI-38 cells, following the previously reported method. Experimental details can be found in the Supplementary Materials.
(§3) 1.1. The biological assays
(§4) 1.1.1. The anticancer activity
(§5) The breast adenocarcinoma (MCF-7), Hepatocellular carcinoma (HEPG-2), and normal fibroblast (WI-38) cells were obtained from ATCC via Holding company for biological products and vaccines (VACSERA), Cairo, Egypt. The reagents […] medium, MTT, DMSO, and fetal bovine serum was obtained from Sigma Aldrich. Dulbecco’s modified Eagle’s medium was used as the culture medium for the cells, and the cytotoxicity was evaluated using the reported MTT assay. Doxorubicin was used as the positive reference, and the IC50 values were obtained from the corresponding dose-response curve.
(§6) This colorimetric assay is based on converting the yellow tetrazolium bromide (MTT) to a purple formazan derivative by mitochondrial succinate dehydrogenase in viable cells. Cell lines were cultured in […] medium with 10% fetal bovine serum. Antibiotics added were 100 units/ml penicillin and 100µg/ml streptomycin at 37 C in a 5% Co2 incubator. The cell lines were seeded in a 96-well plate at a density of 1.0x10^4 cells/well. at 37 C for 48 h under 5% Co2. After incubation, the cells were treated with different concentrations of compounds and incubated for 13 […]
Finally, dimethyl sulfoxide (DMSO) in the volume of 100 µl is added to each well to dissolve the purple formazan formed. The colorimetric assay is measured and recorded at an absorbance of 570 nm using a plate reader (EXL 800, USA). The percentage of the relative cell viability was calculated as (A570 of treated samples/A570 of the untreated sample) X 100. […]

MCF-7 cells = assay: MTT antiproliferative assay, MCF-7 cells; format: cell-based; settings: for IC50: Homo sapiens, MCF7, 24 h, read-out: MCF7 IC50; for MCF7 TI (therapeutic index): ratio of IC50 against WI38 cells to IC50 against MCF-7 cells
Source text: as §1, with “We have developed several OSe compounds with promising antioxidant, antimicrobial, and antitumor properties.” left out
as §2, §3, §4, §5, §6
(§7) Finally, dimethyl sulfoxide (DMSO) in the volume of 100 µl is added to each well to dissolve the purple formazan formed. The colorimetric assay is measured and recorded at an absorbance of 570 […]
(§8) The percentage of the relative cell viability was calculated as (A570 of treated samples/A570 of the untreated sample) X 100. […]

S. aureus [1] = assay: Agar diffusion assay, S. aureus; format: cell-based, Staphylococcus aureus; parameters: concentration or dose not given beside the values; settings: ratio of inhibition zone of compound to that of positive control (ampicillin)
Source text: (§9) The encouraging antitumor properties of the OSe compounds motivated us to evaluate their corresponding antimicrobial activities against the C. albicans fungal strain, S. aureus Gram-positive bacteria, and E. coli Gram-negative bacteria. Therefore, we applied the agar diffusion and minimum inhibitory concentration (MIC) methods using clotrimazole antifungal and ampicillin antibacterial drugs as standards.
The products’ antimicrobial properties were examined according to the previously reported method, via agar well diffusion assay against E. coli, S. aureus, and C. albicans. A microdilution method was also used to record MICs (M), following the previously reported procedure. Experimental details can be found in the Supplementary Materials. […]
(§10) 1.1.2. The antimicrobial activity
The antimicrobial activities of the OSe compounds were evaluate d against C. albicans yeast as well as E. coli gram-negative and S. aureus gram-positive bacteria employing the agar well diffusion assay.
Briefly, a concentration of 1 mM was prepared for each compound by dissolving in DMSO. Paper discs of standard size […] were sterilized in an autoclave and soaked in 9 µL of the test compounds, and placed in the Petri dishes, which in turn contain a nutrient media (agar 9 g, peptone 5 g, and beef extract 3 g) seeded with the dedicated strain. Incubation lasted for 13 h at 36 0C.
Experiments were replicated three times and the antifungal clotrimazole and antibiotic ampicillin […]

E. coli = assay: Agar diffusion assay, E. coli; format: cell-based, Escherichia coli; settings: for E. coli ZID (inhibition zone diameter): 6-mm disks soaked with 20 μM of the OSe agents; for E. coli IA% (activity index): ratio of inhibition zone of compound to that of positive control (ampicillin)
Source text: as §9
The products’ antimicrobial properties were examined according to the previously reported method, via agar well diffusion assay against E. coli, S. aureus, and C. albicans. A microdilution method was also used to record MICs (M), following the previously reported procedure. Experimental details can be found in the Supplementary Materials.
1.1. […]
as §10
The antimicrobial activities of the OSe compounds were evaluate d against C. albicans yeast as well as E.
coli gram-negative and S. aureus gram-positive bacteria employing the agar well diffusion assay. […]
5 g, and beef extract 3 g) seeded with the dedicated strain. Incubation lasted for 13 h at 36 0C.
Experiments were replicated three times and the antifungal clotrimazole and antibiotic ampicillin
1.1.3. […]

S. aureus [2] = assay: Agar diffusion assay, S. aureus; format: cell-based; settings: Staphylococcus aureus; 6-mm disks soaked with 20 μM of the OSe agents; read-out: S. aureus ZID (inhibition zone diameter)
WI-38 cells = assay: MTT cytotoxicity assay, normal lung fibroblast WI-38 cells; format: cell-based; settings: Homo sapiens, WI-38, 24 h, read-out: WI38 IC50
Source text: as §1, with “We have developed several OSe compounds with promising antioxidant, antimicrobial, and antitumor properties.” left out
as §2, §3, §4, §5, §6, §7, §8

C. albicans = assay: Agar diffusion assay, C. albicans; format: cell-based, Candida albicans; settings: for zone of inhibition at 20 µM: Candida albicans, read-out: C. albicans ZID (inhibition zone diameter); for C. albicans IA% (activity index): ratio of inhibition zone of compound to that of positive control (clotrimazole)

| IC50 (HepG2 cells; MTT bioassay, HepG2 cells, 24 h incubation) [µM] | SMILES | IC50 (MCF-7 cells) [µM] | MCF7 TI (therapeutic index) (MCF-7 cells) | S. aureus IA% (activity index) (S. aureus [1]) [%] | E. coli ZID (inhibition zone diameter) (E. coli) [mm] | E. coli IA% (activity index) (E. coli) [%] | zone of inhibition at 20 µM (S. aureus [2]) [mm] | IC50 (WI-38 cells) [µM] | zone of inhibition at 20 µM (C. albicans) [mm] | C. albicans IA% (activity index) (C. albicans) [%] | IC50 (HepG2 cells; HepG2, 24 h) [µM] | HepG2 TI (therapeutic index) (HepG2 cells) |
| --- | --- | --- | --- | --- | --- | --- | --- | --- | --- | --- | --- | --- |
| 4.5 ± 0.2 | COc1cccc2c1C(=O)c1c(O)c3c(c(O)c1C2=O)C[C@@](O)(C(=O)CO)C[C@@H]3O[C@H]1C[C@H](N)[C@H](O)[C@H](C)O1 [Adriamycin, doxorubicin, reference compound] | – | – | – | – | – | – | – | – | – | – | – |
| – | CCOC(=O)C(C#N)=NNc1ccc([Se]CC(=O)NOCc2ccccc2)cc1 [Compound 15, Ethyl 2-(2-(4-((2-((benzyloxy)amino)-2-oxoethyl)selanyl)phenyl)hydrazineylidene)-2-cyanoacetate] | 21.6 ± 1.6 | 3.8 | 71.4 | 12 | 52.2 | 15 | 82 ± 4.6 | 20 | 83.3 | 15.8 ± 1.3 | 5.2 |
| – | CC1(C)S[C@@H]2[C@H](NC(=O)[C@H](N)c3ccccc3)C(=O)N2[C@H]1C(=O)O [Ampicillin, ampicillin, reference compound] | – | – | 100 | 23 | 100 | 21 | – | – | – | – | – |
| – | CC(=O)Nc1ccc([Se]CC(=O)NOCc2ccccc2)cc1 [Compound 9, 2-((4-Acetamidophenyl)selanyl)-N-(benzyloxy)acetamide] | 45.6 ± 2.9 | 1.9 | 33.3 | 6 | 26.1 | 7 | 84.8 ± 4.8 | 9 | 37.5 | 53 ± 3.2 | 1.6 |
| – | O=C(C[Se]c1ccc(N=Nc2ccc(O)cc2)cc1)NOCc1ccccc1 [Compound 16, N-(benzyloxy)-2-((4-((4-hydroxyphenyl)diazenyl)phenyl)selanyl)acetamide] | 33.7 ± 2.4 | 1.9 | 52.4 | 9 | 39.1 | 11 | 64.2 ± 3.9 | 16 | 66.7 | 26.5 ± 2 | 2.4 |
| – | O=C(O)C=CC(=O)Nc1ccc([Se]CC(=O)NOCc2ccccc2)cc1 [Compound 12, 4-((4-((2-((Benzyloxy)amino)-2-oxoethyl)selanyl)phenyl)amino)-4-oxobut-2-enoic Acid] | 63 ± 3.8 | 0.6 | 23.8 | 4 | 17.4 | 5 | 36.5 ± 2.4 | 10 | 41.7 | 72.9 ± 3.7 | 0.5 |
| – | O=C(C[Se]c1ccc(NC(=O)CCl)cc1)NOCc1ccccc1 [Compound 14, N-(benzyloxy)-2-((4-(2-chloroacetamido)phenyl)selanyl)acetamide] | 87.4 ± 4.1 | 1.1 | – | – | – | – | > 100 | 4 | 16.7 | > 100 | – |
| – | O=C(O)CCC(=O)Nc1ccc([Se]CC(=O)NOCc2ccccc2)cc1 [Compound 11, 4-((4-((2-((Benzyloxy)amino)-2-oxoethyl)selanyl)phenyl)amino)-4-oxobutanoic Acid] | 35 ± 2.5 | 1.5 | 47.6 | 7 | 30.4 | 10 | 52.5 ± 3.2 | 13 | 54.2 | 48.8 ± 2.8 | 1.1 |
